Data: patent publication US9624217B2, “Dihydropyrrolopyridine inhibitors of ROR-gamma” (Vitae Pharmaceuticals, Inc., priority 2014, dated 2017)

The compounds below were run against recombinant RORγ Ligand Binding Domain (LBD) (Homo sapiens (Human), UniProt P51449) (assay: Radio-Ligand RORγ Binding Assay (Assay 1)). Conditions: SPA competition with 25-hydroxy [26,27-3H]-cholesterol, cell-free; read-out: RORγ Binding Ki Range.
recombinant RORγ Ligand Binding Domain (LBD), sequence (P51449 269-508): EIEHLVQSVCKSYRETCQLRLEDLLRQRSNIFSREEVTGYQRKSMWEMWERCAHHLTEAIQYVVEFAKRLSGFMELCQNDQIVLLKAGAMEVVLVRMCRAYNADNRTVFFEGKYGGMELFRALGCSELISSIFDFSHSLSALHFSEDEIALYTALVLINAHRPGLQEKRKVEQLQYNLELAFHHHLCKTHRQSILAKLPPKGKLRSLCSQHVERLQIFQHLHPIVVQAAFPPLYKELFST
Protocol: Radio-Ligand RORγ Binding Assay (Assay 1)
Compounds of the present invention were tested for ability to bind to RORγ in a cell-free competition assay with commercially available radio-ligand (RL), 25-hydroxy [26,27-^3H]-cholesterol (PerkinElmer, Cat. #NET674250UC), for a ligand binding site on a recombinant RORγ Ligand Binding Domain (LBD) protein expressed as a 6×His-Glutathione-S-Transferase (GST) fusion. […] The plate was shaken at 700 rpm for 20 min and incubated for 10 min at rt, after which 40 μL of poly-Lys YSi SPA beads (PerkinElmer, Cat. #RPNQ0010) were added to achieve 50 μg of the beads per well. The plate was incubated on an orbital shaker for 20 min and then for 10 min without agitation at rt. SPA signal for tritium beta radiation was registered on PerkinElmer Microbeta plate reader. […] The percent inhibition vs. concentration data were fit into a four-parameter model, and IC50 values were calculated from the fit as the concentrations corresponding to the inflection points on the dose-response curves.
With CC(C)[C@H]1c2ncc(C(=O)NCC3CN(S(C)(=O)=O)C3)cc2CN1Cc1ccc(C(F)(F)F)cc1 [Compound 153] the Ki was > 1000 nM.
With CC(C)[C@H]1c2ncc(C(=O)NC(CC(=O)O)c3ccc(Br)cc3)cc2CN1Cc1ccc(C(F)(F)F)cc1 (some centres unmarked) [Compound 140] the Ki was > 1000 nM.
With COC(=O)N1CCC(CNC(=O)c2cnc3c(c2)CN(Cc2ccc(C(F)(F)F)cc2)[C@H]3C(C)C)C1 (some centres unmarked) [Compound 107] the Ki was 100 to 1000 nM.
With CC(C)[C@H]1c2ncc(C(=O)NCc3nnc4n3CCC4)cc2CN1Cc1ccc(C(F)(F)F)cc1 [Compound 94] the Ki was > 1000 nM.
In the case of CC(C)[C@H]1c2ncc(C(=O)NCc3ccc(C(=O)O)cn3)cc2CN1Cc1ccc(C(F)(F)F)cc1 [Compound 151], the Ki is reported as 100 to 1000 nM.
In the case of CC(C)[C@H]1c2ncc(C(=O)NCC3CCN(S(C)(=O)=O)C3)cc2CN1Cc1ccc(C(F)(F)F)cc1 (some centres unmarked) [Compound 154], the Ki is reported as > 1000 nM.
With COC(=O)c1ccc(CNC(=O)c2cnc3c(c2)CN(Cc2ccc(C(F)(F)F)cc2)[C@H]3C(C)C)nc1 [Compound 150] the Ki was > 1000 nM.
In the case of CC(C)[C@H]1c2ncc(C(=O)NCC(c3ccc(C(F)(F)F)cc3)N3CCOCC3)cc2CN1Cc1ccc(C(F)(F)F)cc1 (some centres unmarked) [Compound 93], the Ki is reported as > 1000 nM.
In the case of CC(C)[C@H]1c2ncc(C(=O)NC(Cc3ccc(F)cc3)C(=O)O)cc2CN1Cc1ccc(C(F)(F)F)cc1 (some centres unmarked) [Compound 138], the Ki is reported as > 1000 nM.
Compound CC(C)[C@H]1c2ncc(C(=O)NCc3ccncc3)cc2CN1Cc1ccc(C(F)(F)F)cc1 [Compound 115] has a Ki of 100 to 1000 nM.
COC(=O)C(Cc1ccc(F)cc1)NC(=O)c1cnc2c(c1)CN(Cc1ccc(C(F)(F)F)cc1)[C@H]2C(C)C (some centres unmarked) [Compound 126] was tested, and the Ki was > 1000 nM.
CC(C)[C@H]1c2ncc(C(=O)NCC3(CC(=O)O)CCCCC3)cc2CN1Cc1ccc(C(F)(F)F)cc1 [Compound 145] was tested, and the Ki was > 1000 nM.
CC(C)[C@H]1c2ncc(C(=O)NCC3CCS(=O)(=O)CC3)cc2CN1Cc1ccc(C(F)(F)F)cc1 [Compound 61] was tested, and the Ki was > 1000 nM.
With COC(=O)N1CCC(CNC(=O)c2cnc3c(c2)CN(Cc2ccc(C(F)(F)F)cc2)[C@H]3C(C)C)CC1 [Compound 110] the Ki was > 1000 nM.
With CC(C)[C@H]1c2ncc(C(=O)NCCCn3ccnc3)cc2CN1Cc1ccc(C(F)(F)F)cc1 [Compound 96] the Ki was > 1000 nM.
For CC(C)[C@H]1c2ncc(C(=O)NCCC3CCS(=O)(=O)CC3)cc2CN1Cc1ccc(C(F)(F)F)cc1 [Compound 62], the Ki was > 1000 nM.
In the case of CC(C)NC(=O)c1cnc2c(c1)CN(Cc1ccc(C(F)(F)F)cc1)[C@H]2C(C)C [Compound 122], the Ki is reported as > 1000 nM.
In the case of CC(C)[C@H]1c2ncc(C(=O)NCCCN3CCCC3=O)cc2CN1Cc1ccc(C(F)(F)F)cc1 [Compound 79], the Ki is reported as > 1000 nM.
In the case of CC(=O)O[C@@H]1CN(C(C)=O)CC[C@H]1CNC(=O)c1cnc2c(c1)CN(Cc1ccc(C(F)(F)F)cc1)[C@H]2C(C)C [Compound 157], the Ki is reported as > 1000 nM.
With CCS(=O)(=O)c1ccc(CNC(=O)c2cnc3c(c2)CN(Cc2ccc(C(F)(F)F)cc2)[C@H]3C(C)C)nn1 [Compound 159] the Ki was < 100 nM.
In the case of CC(C)[C@H]1c2ncc(C(=O)NC3(c4cnccn4)CC3)cc2CN1Cc1ccc(C(F)(F)F)cc1 [Compound 120], the Ki is reported as > 1000 nM.
CC(C)[C@H]1c2ncc(C(=O)NCC3CCN(C(=O)OC(C)(C)C)C3)cc2CN1Cc1ccc(C(F)(F)F)cc1 (some centres unmarked) [Compound 74] was tested, and the Ki was > 1000 nM.
CC(C)[C@H]1c2ncc(C(=O)N[C@H]3c4ccccc4C[C@H]3O)cc2CN1Cc1ccc(C(F)(F)F)cc1 [Compound 131] was tested, and the Ki was 100 to 1000 nM.
In the case of CC(C)[C@H]1c2ncc(C(=O)N[C@H]3c4ccccc4C[C@H]3O)cc2CN1Cc1ccc(C(F)(F)F)cc1 [Compound 130], the Ki is reported as > 1000 nM.
With CC(C)[C@H]1c2ncc(C(=O)NCCc3ccnc(O)c3)cc2CN1Cc1ccc(C(F)(F)F)cc1 [Compound 101] the Ki was > 1000 nM.
With CNC(=O)[C@H]1CC[C@H](CNC(=O)c2cnc3c(c2)CN(Cc2ccc(C(F)(F)F)cc2)[C@H]3C(C)C)CC1 [Compound 108] the Ki was > 1000 nM.
CC(C)[C@H]1c2ncc(C(=O)NCC3(C(=O)O)CCOCC3)cc2CN1Cc1ccc(C(F)(F)F)cc1 [Compound 146] was tested, and the Ki was > 1000 nM.
In the case of CCS(=O)(=O)c1ccc(CNC(=O)c2cnc3c(c2)CN(C[C@H]2CC[C@H](C(=O)OC)CC2)[C@H]3C(C)C)cc1 [Compound 44], the Ki is reported as < 100 nM.
CC(C)[C@H]1c2ncc(C(=O)NC[C@H]3CC[C@H](C#N)CC3)cc2CN1Cc1ccc(C(F)(F)F)cc1 [Compound 129] was tested, and the Ki was 100 to 1000 nM.
CC(C)[C@H]1c2ncc(C(=O)NCC(F)(F)F)cc2CN1Cc1ccc(C(F)(F)F)cc1 [Compound 117] was tested, and the Ki was > 1000 nM.
In the case of COC(=O)N1CC(CNC(=O)c2cnc3c(c2)CN(Cc2ccc(C(F)(F)F)cc2)[C@H]3C(C)C)C1 [Compound 105], the Ki is reported as > 1000 nM.
With CC(C)[C@H]1c2ncc(C(=O)N[C@H](CO)c3ccc(C#N)cc3)cc2CN1Cc1ccc(C(F)(F)F)cc1 [Compound 158] the Ki was 100 to 1000 nM.
With CC(C)[C@H]1c2ncc(C(=O)NCC3CCN(C(=O)CO)CC3)cc2CN1Cc1ccc(C(F)(F)F)cc1 [Compound 113] the Ki was 100 to 1000 nM.
With CCS(=O)(=O)N1CCC(CNC(=O)c2cnc3c(c2)CN(Cc2ccc(C(F)(F)F)cc2)[C@H]3C(C)C)C1 (some centres unmarked) [Compound 106] the Ki was 100 to 1000 nM.
CC(C)[C@H]1c2ncc(C(=O)NCC(c3ccncc3)N(C)C)cc2CN1Cc1ccc(C(F)(F)F)cc1 (some centres unmarked) [Compound 92] was tested, and the Ki was > 1000 nM.
CC(C)[C@H]1c2ncc(C(=O)N[C@@H](CCO)c3ccc(Cl)cc3)cc2CN1Cc1ccc(C(F)(F)F)cc1 [Compound 71] was tested, and the Ki was 100 to 1000 nM.
In the case of CC(C)[C@H]1c2ncc(C(=O)NCCC3CN(C(=O)OC(C)(C)C)C3)cc2CN1Cc1ccc(C(F)(F)F)cc1 [Compound 66], the Ki is reported as > 1000 nM.
For CCS(=O)(=O)N1CC(CNC(=O)c2cnc3c(c2)CN(Cc2ccc(C(F)(F)F)cc2)[C@H]3C(C)C)C1 [Compound 104], the Ki was 100 to 1000 nM.
In the case of CC(C)[C@H]1c2ncc(C(=O)NCCC3C(=O)Nc4ccc(Cl)cc43)cc2CN1Cc1ccc(C(F)(F)F)cc1 (some centres unmarked) [Compound 121], the Ki is reported as > 1000 nM.
For CC(C)[C@H]1c2ncc(C(=O)NCC3CCN(C)CC3)cc2CN1Cc1ccc(C(F)(F)F)cc1 [Compound 100], the Ki was > 1000 nM.
In the case of CC(C)[C@H]1c2ncc(C(=O)NCC(c3cccnc3)N3CCOCC3)cc2CN1Cc1ccc(C(F)(F)F)cc1 (some centres unmarked) [Compound 88], the Ki is reported as > 1000 nM.
For CC(C)[C@H]1c2ncc(C(=O)NCc3ccccc3CN3CCN(C)CC3)cc2CN1Cc1ccc(C(F)(F)F)cc1 [Compound 81], the Ki was > 1000 nM.
For CC(C)[C@H]1c2ncc(C(=O)NC3(CO)Cc4ccccc4C3)cc2CN1Cc1ccc(C(F)(F)F)cc1 [Compound 87], the Ki was > 1000 nM.
For COC(=O)CC1(CNC(=O)c2cnc3c(c2)CN(Cc2ccc(C(F)(F)F)cc2)[C@H]3C(C)C)CCCCC1 [Compound 137], the Ki was > 1000 nM.
CC(C)[C@H]1c2ncc(C(=O)NCCN3CCOCC3)cc2CN1Cc1ccc(C(F)(F)F)cc1 [Compound 77] was tested, and the Ki was > 1000 nM.
With CCS(=O)(=O)N1CC(CCNC(=O)c2cnc3c(c2)CN(Cc2ccc(C(F)(F)F)cc2)[C@H]3C(C)C)C1 [Compound 102] the Ki was 100 to 1000 nM.
With CC(O)C(=O)N1CCC(CNC(=O)c2cnc3c(c2)CN(Cc2ccc(C(F)(F)F)cc2)[C@H]3C(C)C)CC1 (some centres unmarked) [Compound 112] the Ki was > 1000 nM.
For COC(=O)C(Cc1cc(=O)[nH]c2ccccc12)NC(=O)c1cnc2c(c1)CN(Cc1ccc(C(F)(F)F)cc1)[C@H]2C(C)C (some centres unmarked) [Compound 135], the Ki was > 1000 nM.
CC(C)[C@H]1c2ncc(C(=O)NCC3COCCO3)cc2CN1Cc1ccc(C(F)(F)F)cc1 (some centres unmarked) [Compound 85] was tested, and the Ki was > 1000 nM.
CC(C)[C@@H]1c2ncc(C(=O)NCc3ccc(S(C)(=O)=O)cc3)cc2CN1Cc1ccc(Cl)cc1 [Compound 18] was tested, and the Ki was > 1000 nM.
CC(C)[C@@H]1c2ncc(C(=O)NCc3ccc(S(C)(=O)=O)cc3)cc2CN1Cc1ccc(C(F)(F)F)cn1 [Compound 37] was tested, and the Ki was > 1000 nM.
CC(C)[C@H]1c2ncc(C(=O)N[C@H]3c4ccccc4C[C@H]3O)cc2CN1Cc1ccc(C(F)(F)F)cc1 [Compound 132] showed a Ki of 100 to 1000 nM.
In the case of CC(C)[C@H]1c2ncc(C(=O)NCc3ccc(C(=O)O)cc3)cc2CN1Cc1ccc(C(F)(F)F)cc1 [Compound 147, (S)-4-((7-isopropyl-6-(4-(trifluoromethyl)benzyl)-6,7-dihydro-5H-pyrrolo[3,4-b]pyridine-3-carboxamido)methyl)benzoic acid], the Ki is reported as 100 to 1000 nM.
With CC(C)[C@H]1c2ncc(C(=O)NCCC3CN(S(C)(=O)=O)C3)cc2CN1Cc1ccc(C(F)(F)F)cc1 [Compound 152] the Ki was > 1000 nM.
CC(C)[C@H]1c2ncc(C(=O)NC(Cc3cc(=O)[nH]c4ccccc34)C(=O)O)cc2CN1Cc1ccc(C(F)(F)F)cc1 (some centres unmarked) [Compound 136] was tested, and the Ki was > 1000 nM.
CC(C)[C@H]1c2ncc(C(=O)NCc3cn4cccnc4n3)cc2CN1Cc1ccc(C(F)(F)F)cc1 [Compound 69] was tested, and the Ki was > 1000 nM.
CC(C)[C@H]1c2ncc(C(=O)NCCc3ccccn3)cc2CN1Cc1ccc(C(F)(F)F)cc1 [Compound 97] was tested, and the Ki was > 1000 nM.
In the case of CC(C)[C@H]1c2ncc(C(=O)NCc3ccnnc3)cc2CN1Cc1ccc(C(F)(F)F)cc1 [Compound 83], the Ki is reported as 100 to 1000 nM.
For CC(C)[C@H]1c2ncc(C(=O)NC[C@@H]3CCN(C(=O)OC(C)(C)C)C[C@H]3O)cc2CN1Cc1ccc(C(F)(F)F)cc1 [Compound 156], the Ki was > 1000 nM.
For CC(C)[C@H]1c2ncc(C(=O)NCc3cccnn3)cc2CN1Cc1ccc(C(F)(F)F)cc1 [Compound 84], the Ki was > 1000 nM.
CC(C)[C@H]1c2ncc(C(=O)NCc3ccccn3)cc2CN1Cc1ccc(C(F)(F)F)cc1 [Compound 78] was tested, and the Ki was 100 to 1000 nM.
With CC(=O)N1CCC(CNC(=O)c2cnc3c(c2)CN(Cc2ccc(C(F)(F)F)cc2)[C@H]3C(C)C)CC1 [Compound 114] the Ki was > 1000 nM.
